# Values quoted from earlier work in US20130122119A1, “PHYLLANTHUS AMARUS COMPOSITIONS AND METHOD OF EXTRACTING SAME” (NATREON, INC., priority 2011, published 2013).
# pIC50: −log10 of the molar value.
# Key:
# TNF-α release = conditions: read-out: IC50 of TNF-α release inhibition
# [1] = tested on: hepatitis B e-antigen (HBeAg) secretion; conditions: non-cytotoxic concentration of 200 μg/ml
# [2] = tested on: hepatitis B surface antigen (HBsAg) secretion; conditions: non-cytotoxic concentration of 200 μg/ml
# mouse skin tumors = conditions: week 20, treatment prior to okadaic acid
# [3] = geraniin isolated from Phyllanthus sellowianus
Molecule,pIC50 (TNF-α release),inhibition of HBeAg secretion [1],inhibition of HBsAg secretion [2],average numbers of tumor per mouse (mouse skin tumors; 3.8 without treatment),percentage of tumor-bearing mice (mouse skin tumors; 80.0% without treatment),analgesic potency at the ID50 level (micromol/kg) relative to aspirin and acetaminophen [3]
"O=C(O[C@@H]1O[C@@H]2COC(=O)c3cc(O)c(O)c(O)c3-c3c(cc(O)c(O)c3O)C(=O)O[C@H]([C@H]1O)[C@@H]2O)c1cc(O)c(O)c(O)c1 [Corilagin, beta-1-O-galloyl-3,6-(R)-hexahydroxydiphenoyl-D-glucose]",4.12,–,–,–,–,–
"O=C1OC2C3COC(=O)c4cc(O)c(O)c(O)c4-c4c(cc(O)c(O)c4O)C(=O)OC2C(OC(=O)c2cc(O)c(O)c4c2C2C1=CC(=O)C(O)(O4)C2(O)O)C(OC(=O)c1cc(O)c(O)c(O)c1)O3 [Geraniin, beta-D-Glucopyranose, cyclic 2-7:4-5-(3,6-dihydro-2,9,10,11,11-pentahydroxy-3-oxo-2,6-methano-2H-1-benzoxocin-5,7-dicarboxylate) cyclic 3,6-(4,4′,5,5′,6,6′-hexahydroxy(1,1′-biphenyl)-2,2′-dicarboxylate) 1-(3,4,5-trihydroxybenzoate)]",4.37,> 63.7%,more than 85.8%,1.1,40.0%,about six- to seven-fold more potent
(−)-epigallocatechin gallate,4.59,–,–,–,–,–
